# Results taken from patent publication US10647679B2, “N-methyl-D-aspartate receptor (NMDAR) potentiators, pharmaceutical compositions, and uses related thereto” (Emory University, priority 2015, dated 2020).
# Read-outs that look alike come from different tables or passages of the source.
# Columns and labels:
# Type in all cases: cell-based
# [1] = target: T1, recombinant rat GluN1/GluN2D (Rattus norvegicus, UniProt Q62645); experiment: Two-electrode voltage-clamp (TEVC) recordings in Xenopus laevis oocytes, GluN1/GluN2D; settings: for I10 μM/Icontrol (mean ± SEM, %) GluN2D: 10 μM compound, Table 3; for I30 μM/Icontrol (mean ± SEM, %) GluN2D: 30 μM compound, Tables 5-7
# T1 construct: expressed in transfected cells; host or cells: Xenopus laevis oocytes (Ecocyte) injected with in vitro transcribed cRNA
# Experimental: (§1) Data are from between 3-26 oocytes from 2-5 frogs for each compound and receptor tested.
# (§2) Two-electrode voltage-clamp recordings were performed in Xenopus laevis oocytes (Ecocyte) expressing recombinant rat GluN1/GluN2A, GluN1/GluN2B, GluN1/GluN2C, GluN1/GluN2D. cRNA was transcribed in vitro (Ambion), diluted with nuclease free water, and injected at a ratio of 1:2 GluN1:GluN2 (5-10 ng total cRNA). The oocytes were kept in Barth's solution comprised of (in mM) 88 NaCl, 5 Tris-HCl, 2.4 NaHCO3, 1 KCl, 0.84 MgSO4, 0.41 CaCl2, and 0.33 Ca(NO3)2 at pH 7.4 at 15-17° C. for two to five days before experiments. Oocytes were placed into a perfusion chamber and continually washed with recording solution containing (in mM) 90 NaCl, 1.0 KCl, 0.5 BaCl2, 0.005 EDTA, and 10 HEPES at pH 7.4 (23° C.). Voltage clamp recordings were conducted at a holding potential of −40 mV. All compounds were made as 20 mM stock solutions in DMSO and dissolved to reach the final concentration in recording solution. Final DMSO content was 0.05-0.5% (vol/vol). Some oocytes expressing GluN1/GluN2A were pretreated with […] BAPTA-AM for 10 minutes or injected with […] of 2 mM K-BAPTA to prevent gradual run-up of the current response.
# [2] = target: T2, recombinant rat GluN1/GluN2D (Rattus norvegicus, UniProt P35439+Q62645); experiment: as above
# T2 construct: expressed in transfected cells; host or cells: Xenopus laevis oocytes (Ecocyte) injected with in vitro transcribed cRNA
# Experimental: as §1, §2
# [3] = target: T3, recombinant rat GluN1/GluN2C (Rattus norvegicus, UniProt Q00961); experiment: Two-electrode voltage-clamp (TEVC) recordings in Xenopus laevis oocytes, GluN1/GluN2C; settings: for I10 μM/Icontrol (mean ± SEM, %) GluN2C: 10 μM compound, Table 3; for I30 μM/Icontrol (mean ± SEM, %) GluN2C: 30 μM compound, Tables 5-7
# T3 construct: expressed in transfected cells; host or cells: Xenopus laevis oocytes (Ecocyte) injected with in vitro transcribed cRNA
# Experimental: as §1, §2
# [4] = target: T4, recombinant rat GluN1/GluN2C (Rattus norvegicus, UniProt P35439+Q00961); experiment: as above
# T4 construct: expressed in transfected cells; host or cells: Xenopus laevis oocytes (Ecocyte) injected with in vitro transcribed cRNA
# Experimental: as §1, §2
# [5] = target: T5, recombinant rat GluN1/GluN2B (Rattus norvegicus, UniProt Q00960); experiment: Two-electrode voltage-clamp (TEVC) recordings in Xenopus laevis oocytes, GluN1/GluN2B; settings: for I10 μM/Icontrol (mean ± SEM, %) GluN2B: 10 μM compound, Table 3; for I30 μM/Icontrol (mean ± SEM, %) GluN2B: 30 μM compound, Tables 5-7
# T5 construct: expressed in transfected cells; host or cells: Xenopus laevis oocytes (Ecocyte) injected with in vitro transcribed cRNA
# Experimental: as §1, §2
# [6] = target: T6, recombinant rat GluN1/GluN2B (Rattus norvegicus, UniProt P35439+Q00960); experiment: as above; settings: for EC50: fitted when potentiation at 30 μM exceeded 120%, Tables 3, 5-7, read-out: EC50 (max.) (μM %) GluN2B: fitted EC50
# T6 construct: expressed in transfected cells; host or cells: Xenopus laevis oocytes (Ecocyte) injected with in vitro transcribed cRNA
# Experimental: as §1, §2
# [7] = target: T7, recombinant rat GluN1/GluN2A (Rattus norvegicus, UniProt Q00959); experiment: Two-electrode voltage-clamp (TEVC) recordings in Xenopus laevis oocytes, GluN1/GluN2A; settings: maximum potentiation, response without modulator = 100%
# T7 construct: expressed in transfected cells; host or cells: Xenopus laevis oocytes (Ecocyte) injected with in vitro transcribed cRNA
# Experimental: as §2
# [8] = fitted when potentiation at 30 μM exceeded 120%, Tables 3, 5-7, read-out: EC50 (max.) (μM %) GluN2D: fitted EC50
# [9] = percentage of the initial glutamate (100 μM) and glycine (30 μM) current, read-out: EC50 (max.) (μM %) GluN2D: fitted maximum response
# [10] = percentage of the initial glutamate (100 μM) and glycine (30 μM) current, read-out: EC50 (max.) (μM %) GluN2C: fitted maximum response
# [11] = percentage of the initial glutamate (100 μM) and glycine (30 μM) current, read-out: EC50 (max.) (μM %) GluN2B: fitted maximum response
# [12] = fitted when potentiation at 30 μM exceeded 120%, Tables 3, 5-7, read-out: EC50 (max.) (μM %) GluN2C: fitted EC50
# [13] = maximum potentiation, response without modulator = 100%, read-out: GluN2C EC50 (μM)/Max %: Max %
# [14] = maximum potentiation, response without modulator = 100%, read-out: GluN2B EC50 (μM)/Max %: Max %
# [15] = maximum potentiation, response without modulator = 100%
# [16] = maximum potentiation, response without modulator = 100%, read-out: GluN2D EC50 (μM)/Max %: Max %
# T1 sequence (Q62645 28-1323, other chains not shown): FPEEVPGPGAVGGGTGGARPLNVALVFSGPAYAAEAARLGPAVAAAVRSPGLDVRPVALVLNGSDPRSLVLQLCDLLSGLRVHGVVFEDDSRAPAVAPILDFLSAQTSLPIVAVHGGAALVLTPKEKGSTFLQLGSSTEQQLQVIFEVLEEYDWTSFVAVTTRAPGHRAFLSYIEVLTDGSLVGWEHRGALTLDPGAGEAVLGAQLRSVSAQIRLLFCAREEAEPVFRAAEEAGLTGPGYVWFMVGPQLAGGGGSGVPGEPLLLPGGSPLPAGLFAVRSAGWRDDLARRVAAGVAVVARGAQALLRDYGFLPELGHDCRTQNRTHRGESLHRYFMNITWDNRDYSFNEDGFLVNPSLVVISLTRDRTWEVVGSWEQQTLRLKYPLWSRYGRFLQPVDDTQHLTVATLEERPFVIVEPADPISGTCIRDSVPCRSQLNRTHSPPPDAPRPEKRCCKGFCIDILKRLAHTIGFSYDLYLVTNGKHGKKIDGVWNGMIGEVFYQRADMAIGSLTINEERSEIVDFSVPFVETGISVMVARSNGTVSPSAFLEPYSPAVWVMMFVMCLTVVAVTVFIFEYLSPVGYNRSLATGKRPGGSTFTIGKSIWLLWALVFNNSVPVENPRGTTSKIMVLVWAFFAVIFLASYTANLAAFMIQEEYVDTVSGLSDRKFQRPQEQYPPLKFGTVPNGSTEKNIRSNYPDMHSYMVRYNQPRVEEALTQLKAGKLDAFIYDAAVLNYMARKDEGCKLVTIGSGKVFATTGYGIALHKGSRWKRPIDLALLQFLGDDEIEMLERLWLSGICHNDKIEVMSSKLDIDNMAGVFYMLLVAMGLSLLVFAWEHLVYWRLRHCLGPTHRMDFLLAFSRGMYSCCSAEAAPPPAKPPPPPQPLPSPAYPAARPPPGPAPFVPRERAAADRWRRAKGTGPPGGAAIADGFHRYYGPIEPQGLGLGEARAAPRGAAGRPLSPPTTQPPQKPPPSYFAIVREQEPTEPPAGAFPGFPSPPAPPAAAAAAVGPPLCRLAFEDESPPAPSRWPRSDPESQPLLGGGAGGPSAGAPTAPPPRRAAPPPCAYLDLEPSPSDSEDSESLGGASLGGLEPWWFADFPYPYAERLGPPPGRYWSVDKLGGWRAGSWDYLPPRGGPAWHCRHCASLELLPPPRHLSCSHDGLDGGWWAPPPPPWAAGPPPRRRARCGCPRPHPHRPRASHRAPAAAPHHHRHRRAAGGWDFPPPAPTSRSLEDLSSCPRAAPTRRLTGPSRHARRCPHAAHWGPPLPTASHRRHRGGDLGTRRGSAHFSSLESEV
# T2 sequence (Q62645 28-1323, other chains not shown): as above
# T3 sequence (Q00961 20-1237, other chains not shown): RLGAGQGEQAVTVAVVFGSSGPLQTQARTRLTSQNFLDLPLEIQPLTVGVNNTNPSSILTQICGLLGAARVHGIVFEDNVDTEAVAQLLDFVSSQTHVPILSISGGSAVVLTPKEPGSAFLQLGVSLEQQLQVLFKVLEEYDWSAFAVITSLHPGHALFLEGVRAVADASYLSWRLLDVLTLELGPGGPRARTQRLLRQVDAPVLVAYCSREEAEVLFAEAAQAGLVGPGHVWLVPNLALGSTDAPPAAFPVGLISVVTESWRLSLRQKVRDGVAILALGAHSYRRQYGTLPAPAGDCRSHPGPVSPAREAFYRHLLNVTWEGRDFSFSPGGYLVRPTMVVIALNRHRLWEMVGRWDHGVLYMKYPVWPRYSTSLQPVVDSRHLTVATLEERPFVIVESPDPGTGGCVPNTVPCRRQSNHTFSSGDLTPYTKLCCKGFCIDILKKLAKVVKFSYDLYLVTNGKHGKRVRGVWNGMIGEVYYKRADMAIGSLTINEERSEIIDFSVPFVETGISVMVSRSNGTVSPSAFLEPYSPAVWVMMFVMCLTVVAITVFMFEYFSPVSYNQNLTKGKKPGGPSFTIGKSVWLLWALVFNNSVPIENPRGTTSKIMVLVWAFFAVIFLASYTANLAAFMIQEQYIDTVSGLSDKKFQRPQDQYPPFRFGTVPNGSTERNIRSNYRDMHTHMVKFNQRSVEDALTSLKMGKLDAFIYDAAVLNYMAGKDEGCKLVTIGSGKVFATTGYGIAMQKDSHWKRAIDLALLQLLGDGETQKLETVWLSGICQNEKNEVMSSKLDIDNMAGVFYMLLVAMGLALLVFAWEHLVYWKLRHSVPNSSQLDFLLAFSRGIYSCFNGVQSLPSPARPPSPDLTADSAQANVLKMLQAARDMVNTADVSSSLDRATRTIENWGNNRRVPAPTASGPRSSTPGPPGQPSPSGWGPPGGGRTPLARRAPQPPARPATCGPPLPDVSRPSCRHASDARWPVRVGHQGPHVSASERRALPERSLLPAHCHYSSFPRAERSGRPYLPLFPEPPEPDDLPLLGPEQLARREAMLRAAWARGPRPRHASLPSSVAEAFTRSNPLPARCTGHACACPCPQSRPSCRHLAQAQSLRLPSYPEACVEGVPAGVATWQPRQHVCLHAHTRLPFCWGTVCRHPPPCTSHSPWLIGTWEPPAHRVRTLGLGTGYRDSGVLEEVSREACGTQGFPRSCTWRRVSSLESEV
# T4 sequence (Q00961 20-1237, other chains not shown): as above
# T7 sequence (Q00959 23-1464, other chains not shown): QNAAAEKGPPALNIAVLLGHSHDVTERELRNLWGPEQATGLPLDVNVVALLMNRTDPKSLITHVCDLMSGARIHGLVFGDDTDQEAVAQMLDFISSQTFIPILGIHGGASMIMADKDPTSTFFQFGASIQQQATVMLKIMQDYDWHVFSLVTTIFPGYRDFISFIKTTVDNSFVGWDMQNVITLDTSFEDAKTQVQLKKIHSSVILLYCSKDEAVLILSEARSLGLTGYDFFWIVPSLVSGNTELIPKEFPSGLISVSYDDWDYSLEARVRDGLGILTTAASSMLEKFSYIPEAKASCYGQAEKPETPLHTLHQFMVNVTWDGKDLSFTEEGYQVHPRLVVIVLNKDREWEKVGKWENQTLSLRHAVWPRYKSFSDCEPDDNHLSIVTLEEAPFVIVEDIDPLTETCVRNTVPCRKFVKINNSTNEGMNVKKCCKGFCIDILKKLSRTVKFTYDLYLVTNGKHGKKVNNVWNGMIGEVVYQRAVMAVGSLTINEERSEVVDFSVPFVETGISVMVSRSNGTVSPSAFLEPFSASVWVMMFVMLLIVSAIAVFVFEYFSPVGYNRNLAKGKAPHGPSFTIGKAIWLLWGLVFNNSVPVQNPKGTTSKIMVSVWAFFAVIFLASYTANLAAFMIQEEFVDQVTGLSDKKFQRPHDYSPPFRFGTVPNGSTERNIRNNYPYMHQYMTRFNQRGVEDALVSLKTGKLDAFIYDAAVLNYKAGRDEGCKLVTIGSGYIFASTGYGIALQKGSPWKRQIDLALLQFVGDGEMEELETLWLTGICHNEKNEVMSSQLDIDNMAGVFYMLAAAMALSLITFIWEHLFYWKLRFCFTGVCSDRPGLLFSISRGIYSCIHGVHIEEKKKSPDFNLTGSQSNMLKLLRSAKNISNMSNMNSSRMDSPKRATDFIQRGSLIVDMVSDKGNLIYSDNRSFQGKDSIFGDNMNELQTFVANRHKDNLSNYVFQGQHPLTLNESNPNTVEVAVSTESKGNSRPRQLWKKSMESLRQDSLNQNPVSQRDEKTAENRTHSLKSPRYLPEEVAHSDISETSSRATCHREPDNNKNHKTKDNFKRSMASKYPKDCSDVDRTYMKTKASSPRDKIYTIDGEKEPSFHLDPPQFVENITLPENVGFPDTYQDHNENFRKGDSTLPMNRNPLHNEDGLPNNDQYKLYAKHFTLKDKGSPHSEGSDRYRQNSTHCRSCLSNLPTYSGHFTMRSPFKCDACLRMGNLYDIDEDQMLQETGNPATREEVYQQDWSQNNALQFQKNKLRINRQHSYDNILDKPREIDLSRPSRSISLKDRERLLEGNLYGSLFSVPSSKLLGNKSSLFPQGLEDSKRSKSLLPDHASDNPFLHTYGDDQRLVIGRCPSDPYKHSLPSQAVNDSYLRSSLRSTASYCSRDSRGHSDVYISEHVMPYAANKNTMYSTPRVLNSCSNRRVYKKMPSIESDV
SMILES,"EC50 [2, 8]","Emax [2, 9]","Emax [4, 10]",EC50 [6],"Emax [6, 11]","EC50 [4, 12]","I10 μM/Icontrol (mean ± SEM, %) GluN2D [1]","I10 μM/Icontrol (mean ± SEM, %) GluN2C [3]","I10 μM/Icontrol (mean ± SEM, %) GluN2B [5]","Emax [4, 13]","Emax [6, 14]",also measured
COc1ccc(OC[C@@H]2c3ccc(OC(C)C)cc3CCN2C(=O)c2cccc(Cl)c2)cc1 [(S)-(−)-1180-55],4.5 µM,350%,360%,5.2 µM,307%,–,336%,361%,269%,–,–,–
COc1ccc(OC[C@H]2c3ccc(OC(C)C)cc3CCN2C(=O)c2cccc(Cl)c2)cc1 [(R)-(+)-1180-55],1.3 µM,384%,342%,5 µM,167%,–,345%,323%,150%,–,–,–
CCOc1ccc(OCC2c3ccc(OC(C)C)cc3CCN2C(=S)c2ccc(F)c(Cl)c2)cc1 (centres unmarked) [1180-165],–,–,–,–,–,–,–,–,–,–,–,"GluN2D EC50 (μM)/Max %: Max % [1, 15]: 141%; GluN2C EC50 (μM)/Max %: Max % [3, 15]: 162%; GluN2B EC50 (μM)/Max %: Max % [5, 15]: 226%; GluN2A EC50 (μM)/Max %: Max % [7]: 191%"
COc1ccc(OCC2c3ccc(OC)cc3CCN2C(=O)CCCC(F)(F)F)cc1 (centres unmarked) [1180-252],–,–,–,–,–,–,–,–,–,–,–,"EC50 ([2]; untitled tables after drawing 25 and drawing 36, read-out: EC50 (μM) GluN2D): 14 µM; EC50 ([4]; untitled tables after drawing 25 and drawing 36, read-out: EC50 (μM) GluN2C): 11 µM; GluN2B response % at 30 µM ([5]; at 30 µM): 96% at 30"
COc1ccc(OCC2c3ccc(OC(C)C)cc3CCN2C(=O)c2cccc(F)c2)cc1 (centres unmarked) [1180-140],–,–,–,–,–,–,–,–,–,304%,450%,"Emax [2, 16]: 521%; GluN2A EC50 (μM)/Max %: Max % [7]: 159%"
COc1ccc(OCC2c3ccc(OC(C)C)cc3CCN2C(=S)c2cccc(F)c2)cc1 (centres unmarked) [1180-166],–,–,–,–,–,–,–,–,–,233%,307%,"Emax [2, 16]: 200%; GluN2A EC50 (μM)/Max %: Max % [7]: 179%"
COc1ccc(OCC2c3ccc(OC(C)C)cc3CCN2C(=O)c2cccc(Cl)c2)cc1 (centres unmarked) [1180-55],4.3 µM,323%,250%,5 µM,215%,–,281%,231%,191%,266%,193%,EC50 ([2]; EC50 & Max Effect: 2D (μM)): 2.9 µM; Emax ([4]; read-out: EC50 & Max Effect: 2C Max (%)): 266%

# More lines, main results first:
"EC50 [2, 8]","Emax [2, 9]","Emax [4, 10]",EC50 [6],"Emax [6, 11]","EC50 [4, 12]",SMILES,"I10 μM/Icontrol (mean ± SEM, %) GluN2D [1]","I10 μM/Icontrol (mean ± SEM, %) GluN2C [3]","I10 μM/Icontrol (mean ± SEM, %) GluN2B [5]","Emax [4, 13]","Emax [6, 14]",also measured
–,128%,141%,1 µM,179%,0.33 µM,CCOc1ccc(OCC2c3ccc(OC(C)C)cc3CCN2C(=S)c2cccc(C(F)(F)F)c2)cc1 (centres unmarked) [1180-168],–,–,–,138%,171%,"I30 μM/Icontrol (mean ± SEM, %) GluN2D [1]: 126%; I30 μM/Icontrol (mean ± SEM, %) GluN2C [3]: 139%; I30 μM/Icontrol (mean ± SEM, %) GluN2B [5]: 185%"
2.3 µM,255%,252%,–,–,–,COc1ccc(OC[C@H]2c3ccc(OC(C)C)cc3CCN2C(=S)c2cccc(Cl)c2)cc1 [(R)-(+)-1180-163],215%,252%,121%,–,–,–
0.5 µM,313%,316%,0.28 µM,202%,0.5 µM,COc1ccc(OC[C@@H]2c3ccc(OC(C)C)cc3CCN2C(=S)c2cccc(Cl)c2)cc1 [(S)-(−)-1180-163],299%,302%,203%,–,–,–
0.47 µM,190%,163%,< 0.5 µM,213%,0.46 µM,CCOc1ccc(OC[C@@H]2c3ccc(OC(C)C)cc3CCN2C(=S)c2cccc(F)c2)cc1 [(S)-(−)-1180-154],–,–,–,–,–,"I30 μM/Icontrol (mean ± SEM, %) GluN2D [1]: 185%; I30 μM/Icontrol (mean ± SEM, %) GluN2C [3]: 153%; I30 μM/Icontrol (mean ± SEM, %) GluN2B [5]: 206%"
0.3 µM,160%,182%,0.21 µM,173%,0.24 µM,CCOc1ccc(OC[C@H]2c3ccc(OC(C)C)cc3CCN2C(=S)c2cccc(C(F)(F)F)c2)cc1 [(R)-(+)-1180-168],–,–,–,–,–,"I30 μM/Icontrol (mean ± SEM, %) GluN2D [1]: 157%; I30 μM/Icontrol (mean ± SEM, %) GluN2C [3]: 146%; I30 μM/Icontrol (mean ± SEM, %) GluN2B [5]: 156%"
